From publication PMC5138282, “Glyphosate-Resistant Parthenium hysterophorus in the Caribbean Islands: Non Target Site Resistance and Target Site Resistance in Relation to Resistance Levels” (Frontiers in Plant Science, 2016) come the findings set out here.

Read-outs that look alike come from different tables or passages of the source.

Experiment [1] has as its system 5-enolpyruvylshikimate-3-phosphate synthase (EPSPS), P. hysterophorus accessions from Dominican Republic. To be noted: read-out: I50 (μM)^a, natural mutant, native extract, other EPSPS alleles/copies not excluded, buffer as for Cu-S, stated gain. From the text:
phosphate release (EnzCheck phosphate assay kit), leaf extract on 5-enolpyruvylshikimate-3-phosphate synthase (EPSPS), P. hysterophorus accessions from Dominican Republic

Experiment [2] concerns 5-enolpyruvylshikimate-3-phosphate synthase (EPSPS), P. hysterophorus accessions from Cuba. Briefly: phosphate release (EnzCheck phosphate assay kit), leaf extract. It counts as biochemical, Parthenium hysterophorus. To be noted: read-out: I50 (μM)^a.
For experiment [3] the test system is unchanged. Particulars: read-out: I50 (μM)^a; accession Cu-R1; natural mutant, native extract, other EPSPS alleles/copies not excluded; buffer as for Cu-S; stated gain. From the text: phosphate release (EnzCheck phosphate assay kit), leaf extract on 5-enolpyruvylshikimate-3-phosphate synthase (EPSPS), P. hysterophorus accessions from Cuba
Experiment [4] relates to 5-enolpyruvylshikimate-3-phosphate synthase (EPSPS), P. hysterophorus accessions from Dominican Republic. The experiment can be described thus: phosphate release (EnzCheck phosphate assay kit), leaf extract. It counts as biochemical, Parthenium hysterophorus. Particulars: buffer as for Cu-S, read-out: I50 (μM)^a.

On to `O=C(O)CNCP(=O)(O)O` [glyphosate, (N-phosphonomethyl)-glycine], for which the IC50 in experiment [1] (accession Do-R1) was 468 ± 22 µM; in experiment [1] (accession Do-R2), 411 ± 26.1 µM; in experiment [2] (accession Cu-R2 (resistant plants, no Pro106 change), buffer as for Cu-S), 18.9 ± 1.4 µM; in experiment [2] (accession Cu-R3 (resistant plants, no Pro106 change), buffer as for Cu-S), 17.4 ± 2.8 µM; in experiment [2] (accession Cu-S (susceptible), 100 mM MOPS, 1 mM MgCl2, 10% glycerol, 2 mM sodium molybdate, 200 mM NaF), 13.6 ± 2.2 µM; in experiment [3], 646 ± 35.8 µM. For the same compound, the IC50 in experiment [4] (accession Do-R3 (resistant plants, no Pro106 change)) is 22.6 ± 1.5 µM; in experiment [4] (accession Do-R4 (resistant plants, no Pro106 change)), 20.8 ± 6.1 µM; in experiment [4] (accession Do-S (susceptible)), 18.5 ± 5.7 µM.
